Legend:
A549-ACE2 = assay: drug-induced phospholipidosis relative to tamoxifen; higher = more phospholipidosis
[1] = test system: A549-ACE2 infected with SARS-CoV-2; assay: cell count relative to DMSO; higher = less toxic; conditions: 24 h
[2] = test system: A549-ACE2 infected with SARS-CoV-2; assay: morphology score (similarity to uninfected cells); higher = more like uninfected cells; conditions: 24 h
[3] = test system: A549-ACE2 infected with SARS-CoV-2; assay: SARS-CoV-2 infection rate relative to DMSO; higher = more infection; conditions: 24 h
Vero E6 [4] = assay: drug sensitivity score (DSS) for viability; higher = more toxic; extreme values may be limits of the assay; conditions: 72 h
Calu-3 [5] = assay: as above; conditions: 72 h
U2OS [6] = assay: as above; conditions: 72 h
Caco-2 [7] = assay: as above; conditions: 72 h
HepG2 [8] = assay: as above; conditions: 72 h
Vero E6 [9] = assay: cell viability relative to DMSO; higher = less toxic; conditions: 72 h
Calu-3 [10] = assay: as above; conditions: 72 h
U2OS [11] = assay: as above; conditions: 72 h
Caco-2 [12] = assay: as above; conditions: 72 h
HepG2 [13] = assay: as above; conditions: 72 h
Vero E6 [14] = assay: relative viability EC50 (midpoint between 100% and the lowest measured viability); higher = less toxic; conditions: 72 h
Calu-3 [15] = assay: as above; conditions: 72 h
U2OS [16] = assay: as above; conditions: 72 h
Caco-2 [17] = assay: as above; conditions: 72 h

O=C(Nc1ccc(-c2ccnc(Nc3ccc(N4CCOCC4)cc3)n2)cc1)C1CCCN1 (stereo not drawn) [XL019]
drug-induced phospholipidosis [%], A549-ACE2
Conditions	0.3 µM	0.833333 µM	3.33333 µM	6.66667 µM	10 µM	30 µM
24 h	-0.79	-8.22	-5.43	0.07	5.79	96.9
48 h	3.03	-8.76	-8.92	-8.57	-5.17	83.3
72 h	5.53	-8.19	-8.71	-9.82	-6.36	–

Conditions	SARS-CoV-2 infection rate, [3] [%]	cell count, [1] [%]	cell viability, Caco-2 [12] [%]	cell viability, Calu-3 [10] [%]	cell viability, HepG2 [13] [%]	cell viability, U2OS [11] [%]	cell viability, Vero E6 [9] [%]	morphology score, [2]
1 nM	–	–	89.4	109	95.1	97.9	102	–
10 nM	–	–	99.2	98	96.3	97.5	102	–
100 nM	–	–	98.7	107	89.9	98	98.5	–
0.3 µM	100	98	–	–	–	–	–	0.04
1000 nM	–	–	94.2	122	88.1	96.5	94.5	–
3 µM	101	99	–	–	–	–	–	-0.09
10 µM	86	109	–	–	–	–	–	0.26
10000 nM	–	–	86.5	119	67.5	90.6	94.6	–
30 µM	46	109	–	–	–	–	–	0.33

Conditions	drug sensitivity score	relative viability EC50 [µM]
Caco-2 [7]	0	–
Caco-2 [17]	–	> 10
Calu-3 [5]	0	–
Calu-3 [15]	–	> 10
HepG2 [8]	2.8	–
U2OS [6]	0	–
U2OS [16]	–	> 10
Vero E6 [4]	0	–
Vero E6 [14]	–	> 10

C=C1C(=O)O[C@@H]2[C@H]3C(C)=CC[C@@]34O[C@@]4(C)CC[C@@H]12 [arglabin]
drug-induced phospholipidosis [%], A549-ACE2
Conditions	0.3 µM	0.833333 µM	3.33333 µM	6.66667 µM	10 µM	30 µM
24 h	2.94	-0.34	2.52	0.97	8.21	-1.1
48 h	2.9	0.06	1.52	0.03	4.18	–
72 h	2.96	-0.707	0.896	0.278	0.729	–

Conditions	SARS-CoV-2 infection rate, [3] [%]	cell count, [1] [%]	cell viability, Caco-2 [12] [%]	cell viability, Calu-3 [10] [%]	cell viability, HepG2 [13] [%]	cell viability, U2OS [11] [%]	cell viability, Vero E6 [9] [%]	morphology score, [2]
1 nM	–	–	91.6	90.2	96.1	97.1	110	–
10 nM	–	–	97.8	99.8	92.2	102	99.2	–
100 nM	–	–	100	88.3	96.7	100	110	–
0.3 µM	105	96	–	–	–	–	–	0.02
1000 nM	–	–	104	105	98.2	105	103	–
3 µM	94	100	–	–	–	–	–	0.01
10 µM	95	78	–	–	–	–	–	-0.15
10000 nM	–	–	58.2	68	56.1	76.5	104	–
30 µM	33	36	–	–	–	–	–	0.3

Conditions	drug sensitivity score	relative viability EC50 [µM]
Caco-2 [7]	1.8	–
Calu-3 [5]	1.2	–
HepG2 [8]	2.5	–
U2OS [6]	0.6	–
U2OS [16]	–	> 10
Vero E6 [4]	0	–
Vero E6 [14]	–	> 10

Source: the supplement of paper PMC13380429
